# According to patent publication US20160030407A1, “Method of Treating Inflammatory Lung Disease” (priority 2010, published 2016):
# Experiments:
# nAChR α3/β4 = nAChR α3/β4 (Homo sapiens, UniProt P30926+P32297); assay: nAChR α3/β4 channel agonist assay (FLIPR); format: cell-based; settings: test conc 1 μM; 100% = 30 μM Ach, 0% = HBPS
# Description: (§1) Briefly, cells were incubated with […] dye for 30 min at 37° C.
# nAChR α4/β2 = target: T1, nAChR α4/β2 (Homo sapiens, UniProt P17787+P43681); assay: nAChR α4/β2 channel agonist assay (FLIPR); format: cell-based; settings: test conc 0.3 μM; 100% = 30 μM Ach, 0% = HBPS
# T1 construct: host or cells: HEK293 cells, transient
# T1 sequence (P43681 29-627): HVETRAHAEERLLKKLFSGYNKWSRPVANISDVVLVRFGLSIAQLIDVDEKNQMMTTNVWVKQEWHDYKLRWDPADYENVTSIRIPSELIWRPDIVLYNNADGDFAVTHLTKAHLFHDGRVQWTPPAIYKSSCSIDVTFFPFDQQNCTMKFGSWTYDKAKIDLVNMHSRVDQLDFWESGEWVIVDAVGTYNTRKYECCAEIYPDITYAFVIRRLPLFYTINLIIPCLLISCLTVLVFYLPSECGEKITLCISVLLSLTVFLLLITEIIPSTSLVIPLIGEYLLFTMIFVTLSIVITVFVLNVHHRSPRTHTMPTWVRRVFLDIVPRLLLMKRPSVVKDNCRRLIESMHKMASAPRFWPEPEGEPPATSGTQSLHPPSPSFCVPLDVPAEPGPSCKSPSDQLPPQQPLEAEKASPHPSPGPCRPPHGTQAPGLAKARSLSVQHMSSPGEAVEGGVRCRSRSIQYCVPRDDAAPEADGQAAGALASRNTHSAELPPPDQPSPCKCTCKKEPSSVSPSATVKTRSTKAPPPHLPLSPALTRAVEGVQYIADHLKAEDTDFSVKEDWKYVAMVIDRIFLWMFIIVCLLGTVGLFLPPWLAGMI
# T1 sequence (P17787 26-502): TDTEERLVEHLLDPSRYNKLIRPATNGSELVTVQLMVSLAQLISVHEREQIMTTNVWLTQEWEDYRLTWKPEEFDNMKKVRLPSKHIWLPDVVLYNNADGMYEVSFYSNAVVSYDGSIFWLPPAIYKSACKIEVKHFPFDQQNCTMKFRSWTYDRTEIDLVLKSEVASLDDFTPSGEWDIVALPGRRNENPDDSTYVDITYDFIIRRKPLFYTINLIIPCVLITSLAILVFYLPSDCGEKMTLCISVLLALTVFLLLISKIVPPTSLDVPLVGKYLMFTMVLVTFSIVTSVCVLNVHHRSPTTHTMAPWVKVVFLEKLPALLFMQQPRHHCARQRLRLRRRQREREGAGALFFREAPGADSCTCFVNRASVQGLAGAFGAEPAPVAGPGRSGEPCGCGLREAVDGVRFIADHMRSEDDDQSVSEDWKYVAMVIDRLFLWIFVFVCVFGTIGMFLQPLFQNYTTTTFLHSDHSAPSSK
# Description: as §1
# nAChR α7 [1] = target: T2, nAChR α7 (Homo sapiens, UniProt P36544); assay: nAChR α7 channel agonist assay (FLIPR); format: cell-based; settings: in presence of PNU-120596, 100% = 30 μM Ach+10 μM PNU-120596, 0% = HBPS
# T2 construct: host or cells: CHO cells coexpressing RIC-3
# T2 sequence (P36544 23-502): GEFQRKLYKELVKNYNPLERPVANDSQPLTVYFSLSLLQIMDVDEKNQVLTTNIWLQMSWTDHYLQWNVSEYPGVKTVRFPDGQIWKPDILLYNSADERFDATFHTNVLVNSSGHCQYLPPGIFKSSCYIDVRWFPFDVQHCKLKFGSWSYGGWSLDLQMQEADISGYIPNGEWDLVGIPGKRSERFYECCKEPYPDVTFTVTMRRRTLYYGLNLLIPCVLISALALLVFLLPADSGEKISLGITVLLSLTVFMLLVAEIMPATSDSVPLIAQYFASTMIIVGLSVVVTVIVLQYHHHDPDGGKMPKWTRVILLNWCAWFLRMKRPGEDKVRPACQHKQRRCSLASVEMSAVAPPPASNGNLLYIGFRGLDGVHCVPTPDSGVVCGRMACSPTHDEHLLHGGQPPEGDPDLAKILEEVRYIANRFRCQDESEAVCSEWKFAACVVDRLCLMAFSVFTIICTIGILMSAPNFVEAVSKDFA
# Description: as §1
# Therefore, the assay of agonist activity for either Ach or for the test articles was conducted in the presence of the positive allosteric modulator.
# nAChR α7 [2] = target: T2, nAChR α7; assay: nAChR α7 channel positive allosteric modulator assay (FLIPR); format: cell-based; settings: with 30 μM Ach, 100% = 30 μM Ach+10 μM PNU-120596, 0% = 30 μM Ach
# Description: as §1
# nAChR α7 [3] = target: T2, nAChR α7; assay: nAChR α7 channel antagonist assay (FLIPR); format: cell-based; settings: with 300 μM Ach+10 μM PNU-120596, control antagonist 10 μM MLA
# Description: as §1
# IL-1β = assay: LPS-induced IL-1β release in whole human blood; format: cell-based; settings: whole human blood + LPS; 16 hours (Example 13)
# Description: Whole human blood was treated with LPS to stimulate inflammatory responses. […] The inflammatory molecule IL-1β was measured after 16 hours.
# NFκB = NFκB luciferase assay (inhibition of TNFα-induced NFκB activity); format: cell-based, Human; settings: Homo sapiens; 20 ng/ml TNFα; HEK293 NFκB luciferase
# Description: The smokeless tobacco used in these experiments was plain long-leaf Copenhagen tobacco purchased from a local vendor. Crude extract was extracted with methanol and water and clarified by centrifugation and filtration. The alkaloid extract was prepared from sodium hydroxide and methanol extraction, organic phase separation and purification. All treatment samples were prepared as a function of weight (μg/ml), and all samples were diluted in DMSO.
# Human […] kidney cells (HEK293) transfected with an NFκB luciferase reporter were challenged with TNFα for three hours, then samples were applied to the challenged cells.
# The effect of S-(−)-anatabine on TNFα-induced NFκB activity in vitro was determined as described in Example 1.
# [4] = Treatment of a patient with Hashimoto's thyroiditis; format: in vivo, human; settings: one patient
# From the text: This example illustrates administering anatabine for treating thyroiditis. A patient had been afflicted with Hashimoto's thyroiditis for approximately 5 years. The patient's condition had advanced to a state where the treating physician recommended a thyroid lobectomy.
# [5] = Plasma pharmacokinetics after oral multi-dose anatabine polacrilex; format: in vivo, Sprague-Dawley rats; settings: for t1/2, terminal / AUC0→∞: rat; for t1/2, terminal: after the final dose; for AUC0→∞: males and females combined
# Description: This study consisted of two groups of 8 animals each, 4 males and 4 females.
# The vehicle was sterile phosphate buffered saline (PBS) (Amresco). […] Two formulations were prepared; one for each of the two treatment groups. The test compound was formulated for each treatment group just prior to the first dose administration and constantly stirred until dosing was completed (Table 37). Four aliquots of each dose level formulation were collected and stored at −80° C.
# The animals were weighed prior to dosing and received three doses p.o. of test compound at a volume of 5 mL/kg. Blood was collected via the venus plexus (retro-orbital) into tubes containing (K2) EDTA. No more than 0.5 mL was collected per time point.
# Sample preparation. Plasma samples were treated with three volumes of methanol containing internal standard at 1 μM (R,S)-Antabine-2,4,5,6-d4), incubated 10 min at 4° C., and centrifuged. The amount of the test agent in the supernatant was determined by LC/MS/MS.
# Analysis. Samples were analyzed by LC/MS/MS using an Agilent 6410 mass spectrometer coupled with an Agilent 1200 high pressure liquid chromatography (HPLC) and a CTC PAL chilled autosampler, all controlled by MassHunter software (Agilent). After separation on a Hydrophilic interaction liquid chromatography (HILIC) HPLC column (Sepax) using an acetonitrile-ammonium acetate/acetic acid gradient system, peaks were analyzed by mass spectrometry (MS) using ESI ionization in multiple reaction monitoring (MRM) mode. MassHunter software was used to calculate the concentration of the test compounds in samples from the peak area using the appropriate calibration curves.
# Descriptive statistics were calculated for all pharmacokinetic parameters. Elimination half-lives (t1/2) were calculated by linear regression of logarithmically transformed plasma concentration data for each period between doses and following the final dose.
# Total areas under the plasma concentration curves (AUC) and under the first moment curves (AUMC) were calculated using linear trapezoidal summation across all concentration time points as well as for intervals between each dose administration and following the final dose. […] Mean absorption times (MAT) were calculated according to the following relation: […]
# [6] = Physical signs after oral multi-dose administration (Example 5); format: in vivo, Sprague-Dawley rats; settings: rat; oral gavage 0.6 or 6.0 mg/kg BW in three divided doses
# From the text: The physical signs of each animal were monitored following administration of the test compound.
# Chain of nAChR α3/β4 (P32297 32-505): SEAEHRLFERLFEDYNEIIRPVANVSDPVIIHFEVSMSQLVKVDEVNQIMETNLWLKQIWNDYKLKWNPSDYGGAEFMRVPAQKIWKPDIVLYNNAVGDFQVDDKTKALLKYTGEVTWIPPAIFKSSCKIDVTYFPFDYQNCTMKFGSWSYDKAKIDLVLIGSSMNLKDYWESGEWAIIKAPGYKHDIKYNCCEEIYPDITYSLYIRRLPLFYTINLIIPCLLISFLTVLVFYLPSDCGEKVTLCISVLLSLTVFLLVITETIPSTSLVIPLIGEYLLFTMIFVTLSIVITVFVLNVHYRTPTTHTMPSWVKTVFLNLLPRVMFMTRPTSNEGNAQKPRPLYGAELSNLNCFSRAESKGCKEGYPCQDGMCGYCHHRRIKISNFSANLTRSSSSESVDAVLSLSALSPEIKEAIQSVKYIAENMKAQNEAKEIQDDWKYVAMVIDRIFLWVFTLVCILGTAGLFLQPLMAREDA
# Chain of nAChR α3/β4 (P30926 22-498): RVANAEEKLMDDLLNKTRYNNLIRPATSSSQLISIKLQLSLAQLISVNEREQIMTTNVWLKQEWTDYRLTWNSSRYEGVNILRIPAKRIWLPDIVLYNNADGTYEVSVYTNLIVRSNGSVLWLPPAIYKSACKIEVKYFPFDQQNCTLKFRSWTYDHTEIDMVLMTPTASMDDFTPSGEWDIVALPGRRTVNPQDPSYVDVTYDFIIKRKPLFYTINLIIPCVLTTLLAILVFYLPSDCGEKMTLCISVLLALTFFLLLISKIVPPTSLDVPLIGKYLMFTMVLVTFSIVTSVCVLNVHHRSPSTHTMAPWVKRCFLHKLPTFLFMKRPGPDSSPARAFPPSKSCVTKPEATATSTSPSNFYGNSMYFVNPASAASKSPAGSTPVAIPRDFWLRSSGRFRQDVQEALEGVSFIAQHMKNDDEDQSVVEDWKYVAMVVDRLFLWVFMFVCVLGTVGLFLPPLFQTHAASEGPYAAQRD
molecule,measurement,setting,value
C1=CCC(c2cccnc2)NC1 (racemic) [Anatabine (racemate)],Normalized % Activation,nAChR α3/β4,−0.01%
same,Normalized % Activation,nAChR α4/β2,0.28%
same,Normalized % Activation,nAChR α7 [1]; test conc 1 μm,0.34%
same,Normalized % Activation,nAChR α7 [1]; test conc 3 μm,0.78%
same,Normalized % Potentiation,nAChR α7 [2]; test conc 0.3 μm,−0.94%
same,Normalized % Potentiation,nAChR α7 [2]; test conc 3 μm,−0.82%
same,Normalized % Potentiation,nAChR α7 [2]; test conc 10 μm,−0.51%
same,Normalized % Potentiation,nAChR α7 [2]; test conc 30 μm,−0.57%
same,Normalized % Potentiation,nAChR α7 [2]; test conc 100 μm,−0.64%
same,Normalized % Potentiation,nAChR α7 [2]; test conc 300 μm,−0.74%
same,Normalized % Inhibition,nAChR α7 [3]; test conc 0.3 μm,22.38%
same,Normalized % Inhibition,nAChR α7 [3]; test conc 1 μm,22.23%
same,Normalized % Inhibition,nAChR α7 [3]; test conc 3 μm,45.19%
same,Normalized % Inhibition,nAChR α7 [3]; test conc 10 μm,33.42%
same,Normalized % Inhibition,nAChR α7 [3]; test conc 30 μm,22.88%
same,Normalized % Inhibition,nAChR α7 [3]; test conc 100 μm,21.99%
same,Normalized % Inhibition,nAChR α7 [3]; test conc 300 μm,7.51%
same,Normalized % Inhibition,nAChR α7 [3]; test conc 1000 μm,10.84%
"CC(C)c1c(C(=O)Nc2ccccc2)c(-c2ccccc2)c(-c2ccc(F)cc2)n1CC[C@@H](O)C[C@@H](O)CC(=O)[O-].CC(C)c1c(C(=O)Nc2ccccc2)c(-c2ccccc2)c(-c2ccc(F)cc2)n1CC[C@@H](O)C[C@@H](O)CC(=O)[O-].[Ca+2] [LIPITOR®, reference compound]",accumulation of IL-1β,IL-1β,had no effect at the dose shown
C1=CC[C@@H](c2cccnc2)NC1 [S-(−)-anatabine],IC50,NFκB,~330 µg/mL
anatabine citrate,inflammation of the thyroid,"[4]; about 600 μg tablets 20 times daily, 30 days",reduced to normal levels
same,voice distortion associated with thyroiditis,[4]; after an additional 30 days,no longer present
anatabine polacrilex,"Cp, min(2)","[5]; females, 6.0 mg/kg BW group",180 ± 31 ng/mL
same,"Cp, min, first minimum","[5]; females, 6.0 mg/kg BW group",51.5 ± 26.0 ng/mL
same,"t1/2, terminal",[5]; 0.6 mg/kg BW group,1.79 ± 0.64 h
same,AUC0→∞,[5]; 0.6 mg/kg BW p.o. in three divided doses,285 ± 77 ng·h/mL
same,"t1/2, terminal",[5]; 6.0 mg/kg BW group,4.53 ± 1.77 h
same,AUC0→∞,[5]; 6.0 mg/kg BW p.o. in three divided doses,3496 ± 559 ng·h/mL
same,adverse signs,[6],no adverse signs were observed
